Test results taken from patent publication US6689801B2, “Certain heteroaryl substituted thiol inhibitors of endothelin-converting enzyme” (Novartis AG, priority 1998, dated 2004).

Row | SMILES | melting point [°C]
1 | CSCCC(S)C(=O)NC1(C(=O)NC(Cc2ccc(-c3ccoc3)nc2)C(=O)O)CCCC1.Cl (stereo not drawn) | 150 to 153
2 | CCCC(S)C(=O)NC1(C(=O)NC(Cc2ccc(-c3cccs3)nc2)C(=O)O)CCCC1.Cl (stereo not drawn) | 165 to 167
3 | CC[C@H](C)[C@H](S)C(=O)NC1(C(=O)NC(Cc2ccc(-c3ccccc3)s2)C(=O)O)CCCC1 (stereo in doubt) [Example 1(b), 2-{[1-(2-Mercapto-3-methyl-pentanoylamino)-cyclopentanecarbonyl]-amino}-3-(5-phenyl-thien-2-yl)-propionic acid] | 131 to 133
4 | O=C(O)C(Cc1cc(-c2ccccc2)cs1)NC(=O)C1(NC(=O)[C@@H](S)Cc2ccccc2)CCCC1 (stereo in doubt) [Example 1(d), 2-{[1-(2-Mercapto-3-phenyl-propionylamino)-cyclopentanecarbonyl]-amino}-3-(4-phenyl-thien-2-yl)-propionic acid] | 133 to 136
5 | Cc1nc(-c2ccccc2)oc1CC(NC(=O)C1(NC(=O)[C@@H](S)C(C)C)CCCC1)C(=O)O (stereo in doubt) [Example 1(e), 2-{[1-(2-Mercapto-3-methyl-butanoylamino)-cyclopentanecarbonyl]-amino}-3-(4-methyl-2-phenyl-oxazol-5-yl)-propionic acid] | 227 to 229
6 | CC(C)C[C@H](S)C(=O)NC1(C(=O)N[C@@H](Cc2cnc(-c3ccc(F)c(Cl)c3)s2)C(=O)O)CCCC1 (stereo in doubt) [Example 1(f), 3-[2-(3-Chloro-4-fluoro-phenyl)-thiazol-5-yl]-2-{[1-(2-mercapto-4-methyl-pentanoylamino)-cyclopentanecarbonyl]-amino}-propionic acid] | 96 to 98
7 | Cc1noc(C)c1-c1nc(CC(NC(=O)C2(NC(=O)[C@@H](S)C(C)C)CCCC2)C(=O)O)no1 (stereo in doubt) [Example 1(g), 3-[5-(3,5-Dimethyl-isoxazol-4-yl)-[1,2,4]oxadiazol-3-yl]-2-{[1-(2-mercapto-3-methyl-butanoylamino)-cyclopentanecarbonyl]-amino}-propionic acid] | 170 to 172
8 | Cc1noc(C)c1-c1nc(CC(NC(=O)C2(NC(=O)[C@@H](S)CC(C)C)CCCC2)C(=O)O)no1 (stereo in doubt) [Example 1(h), 3-[5-(3,5-Dimethyl-isoxazol-4-yl)-[1,2,4]oxadiazol-3-yl]-2-{[1-(2-mercapto-4-methyl-pentanoylamino)-cyclopentanecarbonyl]-amino}-propionic acid] | 151 to 153
9 | CC(C)C[C@H](NC(=O)[C@@H](S)CC(C)C)C(=O)N[C@@H](Cc1ccc(-c2cccs2)nc1)C(=O)O (stereo in doubt) [Example 2(aa), 2-[2-(2-Mercapto-4-methyl-pentanoylamino)-4-methyl-pentanoylamino]-3-[6-(thien-2-yl)-pyridin-3-yl]-propionic acid] | 156 to 158
10 | CC[C@H](C)C(S)C(=O)NC1(C(=O)NC(Cc2ccc(-c3ccsc3)nc2)C(=O)O)CCCC1 (stereo in doubt) [Example 2(b), 2-{[1-(2-Mercapto-3-methyl-pentanoylamino)-cyclopentanecarbonyl]-amino}-3-[6-(thien-3yl)-pyridin-3-yl]-propionic acid] | 200 to 202
11 | CC(C)[C@H](S)C(=O)NC1(C(=O)NC(Cc2cc(-c3ccccc3)cs2)C(=O)O)CCCC1 (stereo partly drawn) [Example 1(c), 2-{[1-(2-Mercapto-3-methyl-butanoyllamino)-cyclopentanecarbonyl]-amino}-3-(4-phenyl-thien-2-yl)-propionic acid] | 158 to 164

The next lines start with the values.

Row | melting point [°C] | SMILES
12 | 194 to 195 | CC(C)C[C@H](S)C(=O)N[C@@H](Cc1ccc(Br)nc1)C(=O)N[C@@H](Cc1ccc(-c2cccs2)nc1)C(=O)O (stereo in doubt) [Example 2(bb), 2-[3-(6-Bromo-pyridin-3-yl)-2-(2-mercapto-4-methyl-pentanoylamino)-propionylamino]-3-[6-(thien-2-yl)-pyridin-3-yl]-propionic acid]
13 | 190 to 193 | CC(C)C[C@H](S)C(=O)NC1(C(=O)NC(Cc2ccc(-c3ccoc3)nc2)C(=O)O)CCCC1 (stereo in doubt) [Example 2(dd), 3-[6-(Furan-3-yl)-pyridin-3-yl]-2-{[1-(2-mercapto-4-methyl-pentanoylamino)-cyclopentanecarbonyl]-amino}-propanoic acid]
14 | 218 to 220 | CC(C)C[C@H](S)C(=O)NC(C)(C)C(=O)N[C@@H](Cc1ccc(-c2ccsc2)nc1)C(=O)O (stereo in doubt) [Example 2(k), 2-[2-(2-Mercapto-4-methyl-pentanoylamino)-2-methyl-propionylamino]-3-[6-(thien-3-yl)-pyridin-3-yl]-propionic acid]
15 | 208 to 209 | O=C(O)[C@H](Cc1ccc(-c2ccsc2)nc1)NC(=O)C1(NC(=O)[C@@H](S)Cc2ccccc2)CCCC1 (stereo in doubt) [Example 2(l), 2-{[1-(2-Mercapto-3-phenyl-propionylamino)-cyclopentanecarbonyl]-amino}-3-[6-(thien-3-yl)-pyridin-3-yl]-propionic acid]
16 | 165 to 168 | CC(C)C[C@H](S)C(=O)NC1(C(=O)NC(Cc2ccc(-c3cccnc3)nc2)C(=O)O)CCCC1 (stereo in doubt) [Example 2(o), 2-{[1-(2-Mercapto-4-methyl-pentanoylamino)-cyclopentanecarbonyl]-amino}-3-[6-(pyridin-3-yl)-pyridin-3-yl]-propanoic acid]
17 | 200 to 202 | CC(C)C[C@H](S)C(=O)NC1(C(=O)NC(Cc2ccc(-c3ccco3)nc2)C(=O)O)CCCC1 (stereo in doubt) [Example 2(qq), 3-[6-(Furan-2-yl)-pyridin-3-yl]-2-{[1-(2-mercapto-4-methyl-pentanoylamino)-cyclopentanecarbonyl]-amino}-propionic acid]
18 | 175 to 177 | CSCC[C@H](S)C(=O)NC1(C(=O)NC(Cc2ccc(-c3cccs3)nc2)C(=O)O)CCCC1 (stereo in doubt) [Example 2(r), 2-{[1-(2-Mercapto-4-methylthio-butanoylamino)-cyclopentanecarbonyl]-amino}-3-[6-(thien-2-yl)-pyridin-3-yl]-propionic acid]
19 | 195 to 197 | CSCC[C@H](S)C(=O)NC1(C(=O)NC(Cc2ccc(-c3ccco3)nc2)C(=O)O)CCCC1 (stereo in doubt) [Example 2(tt), 3-[6-(Furan-2-yl)-pyridin-3-yl]-2-{[1-(2-mercapto-4-methylthiobutanoylamino)-cyclopentanecarbonyl]-amino}-propionic acid]
20 | 185 to 187 | CC(C)C[C@H](S)C(=O)NC1(C(=O)NC(Cc2ccc(-c3nccs3)nc2)C(=O)O)CCCC1 (stereo in doubt) [Example 2(uu), 2-{[1-(2-Mercapto-4-methyl-pentanoylamino)-cyclopentanecarbonyl]-amino}-3-[6-(thiazol-2-yl)-pyridin-3-yl]-propionic acid]
21 | 219 to 220 | O=C(NC1(C(=O)N[C@@H](Cc2ccc(-c3cccs3)nc2)C(=O)O)CCCC1)C(S)Cc1ccc(O)cc1 (stereo in doubt) [Example 2(v), 2-({1-[3-(4-Hydroxy-phenyl)-2-mercapto-propanoylamino]-cyclopentanecarbonyl}-amino)-3-[6-(thien-2-yl)-pyridin-3-yl]-propionic acid]
22 | 210 to 212 | CC(C)C[C@H](S)C(=O)N[C@@H](Cc1ccc(-c2cccs2)nc1)C(=O)N[C@@H](Cc1ccc(-c2cccs2)nc1)C(=O)O (stereo in doubt) [Example 2(w), 2-{2-(2-Mercapto-4-methyl-pentanoylamino)-3-[6-(thiophen-2-yl)-pyridin-3-yl]-propanoylamino}-3-[6-(thien-2-yl)-pyridin-3-yl]-propionic acid]
23 | 194 to 196 | CC(C)C[C@H](S)C(=O)NC(C)(C)C(=O)N[C@@H](Cc1ccc(-c2cccs2)nc1)C(=O)O (stereo in doubt) [Example 2(z), 2-[2-(2-Mercapto-4-methyl-pentanoylamino)-2-methyl-propionylamino]-3-[6-(thien-2-yl)-pyridin-3-yl]-propionic acid]
24 | 209 to 210 | CC(C)C[C@H](S)C(=O)N[C@@H](Cc1ccccc1)C(=O)N[C@@H](Cc1ccc(-c2cccs2)nc1)C(=O)O [Example 2(u), 2-[1-(2-Mercapto-4-methyl-pentanoylamino)-3-phenyl-propionylamino]-3-[6-(thien-2-yl)-pyridin-3-yl]-propionic acid]
